According to ChEMBL document CHEMBL3045206, “A facile synthesis of novel herbicidal 1-phenyl-piperazine-2,6-diones” (2005):

What was measured:
Format in all cases: functional
Solanum lycopersicum = experiment: Herbicidal activity against Solanum lycopersicum (tomato) plant at 1200 g/ha applied as spray during post-emergence after 2 weeks under green house conditions
Tagetes = experiment: Herbicidal activity against Tagetes (marigold) plant at 1200 g/ha applied as spray during post-emergence after 2 weeks under green house conditions
Abutilon theophrasti = experiment: Herbicidal activity against Abutilon theophrasti (velvetleaf) plant at 1200 g/ha applied as spray during post-emergence after 2 weeks under green house conditions

SMILES	Activity (Solanum lycopersicum)	Activity (Tagetes)	Activity (Abutilon theophrasti)
C#CCOc1cc(N2C(=O)CN(C)CC2=O)c(F)cc1Cl	75%	0%	95%
CC(C)(C)N1CC(=O)N(c2cc(OC3CCCC3)c(Cl)cc2F)C(=O)C1	0%	0%	25%
COc1cc(N2C(=O)CN3CCCCC3C2=O)c(F)cc1Cl (configuration not stated)	15%	0%	50%
O=C1CN2CCCCC2C(=O)N1c1cc(Cl)c(Cl)cc1F (configuration not stated)	75%	0%	90%
O=C1CN2CCCCC2C(=O)N1c1ccc(Cl)cc1F (configuration not stated)	35%	15%	80%
O=C1CN2CCCC2C(=O)N1c1cc(OC2CCCC2)c(Cl)cc1F (configuration not stated)	0%	0%	50%
CC(C)OC(=O)c1cc(N2C(=O)CN(Cc3ccccc3)CC2=O)c(F)cc1Cl	10%	0%	0%
CN1CC(=O)N(c2cc(OC3CCCC3)c(Cl)cc2F)C(=O)C1	0%	0%	75%
O=C1CN2CCCCC2C(=O)N1c1cc(OC2CCCC2)c(Cl)cc1F (configuration not stated)	60%	10%	90%
